Test results as given in ChEMBL document CHEMBL1136450, “Synthesis and biological activity of 2-carbomethoxy-3-catechol-8-azabicyclo[3.2.1]octanes” (Bioorg Med Chem Lett, 2003).

Tests used:
Format in all cases: cell-based, HEK293
[1] = target: T1, Sodium-dependent serotonin transporter (Homo sapiens, UniProt P31645)
[2] = target: T2, Sodium-dependent dopamine transporter (Homo sapiens, UniProt Q01959)
[3] = target: T3, Sodium-dependent noradrenaline transporter (Homo sapiens, UniProt P23975)
[4] = target: T1, Sodium-dependent serotonin transporter; assay: Inhibition of [3H]5-HT uptake in HEK cells expressing human SERT
[5] = target: T3, Sodium-dependent noradrenaline transporter; assay: Inhibition of [3H]norepinephrine uptake in HEK cells expressing human NET
[6] = target: T2, Sodium-dependent dopamine transporter; assay: Inhibition of [3H]dopamine uptake in HEK cells expressing human DAT

T1 sequence (P31645 whole entry): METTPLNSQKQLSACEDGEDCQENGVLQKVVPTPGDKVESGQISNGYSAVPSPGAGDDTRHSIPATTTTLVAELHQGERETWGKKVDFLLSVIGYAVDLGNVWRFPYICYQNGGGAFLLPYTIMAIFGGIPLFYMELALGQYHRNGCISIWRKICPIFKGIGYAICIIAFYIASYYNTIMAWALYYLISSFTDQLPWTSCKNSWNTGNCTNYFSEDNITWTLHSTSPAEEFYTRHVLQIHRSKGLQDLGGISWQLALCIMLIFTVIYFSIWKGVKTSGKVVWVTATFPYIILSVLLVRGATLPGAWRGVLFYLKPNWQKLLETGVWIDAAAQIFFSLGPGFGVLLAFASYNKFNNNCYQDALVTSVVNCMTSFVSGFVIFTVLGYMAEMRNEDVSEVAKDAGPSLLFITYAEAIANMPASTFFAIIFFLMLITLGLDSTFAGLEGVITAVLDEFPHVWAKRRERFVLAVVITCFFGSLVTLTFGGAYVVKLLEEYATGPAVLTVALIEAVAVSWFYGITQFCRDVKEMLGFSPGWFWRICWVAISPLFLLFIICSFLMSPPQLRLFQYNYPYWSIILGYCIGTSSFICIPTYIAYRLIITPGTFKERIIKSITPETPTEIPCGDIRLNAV
T3 sequence (P23975 whole entry): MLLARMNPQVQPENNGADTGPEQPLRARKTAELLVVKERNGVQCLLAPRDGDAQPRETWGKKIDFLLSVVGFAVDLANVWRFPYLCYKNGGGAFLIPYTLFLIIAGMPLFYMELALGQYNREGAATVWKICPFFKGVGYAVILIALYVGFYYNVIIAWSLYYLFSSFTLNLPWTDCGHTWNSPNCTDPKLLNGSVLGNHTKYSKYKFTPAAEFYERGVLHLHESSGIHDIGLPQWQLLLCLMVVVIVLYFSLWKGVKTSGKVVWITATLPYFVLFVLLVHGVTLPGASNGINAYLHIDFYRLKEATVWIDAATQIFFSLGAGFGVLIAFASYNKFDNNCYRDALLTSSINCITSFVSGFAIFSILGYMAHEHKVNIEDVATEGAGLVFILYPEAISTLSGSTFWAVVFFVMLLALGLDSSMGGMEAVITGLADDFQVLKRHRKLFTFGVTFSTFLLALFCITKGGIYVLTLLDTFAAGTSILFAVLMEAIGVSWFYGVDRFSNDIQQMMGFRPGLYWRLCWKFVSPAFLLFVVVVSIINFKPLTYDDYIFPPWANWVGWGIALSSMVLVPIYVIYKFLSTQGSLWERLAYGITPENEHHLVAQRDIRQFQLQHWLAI
T2 sequence (Q01959 whole entry): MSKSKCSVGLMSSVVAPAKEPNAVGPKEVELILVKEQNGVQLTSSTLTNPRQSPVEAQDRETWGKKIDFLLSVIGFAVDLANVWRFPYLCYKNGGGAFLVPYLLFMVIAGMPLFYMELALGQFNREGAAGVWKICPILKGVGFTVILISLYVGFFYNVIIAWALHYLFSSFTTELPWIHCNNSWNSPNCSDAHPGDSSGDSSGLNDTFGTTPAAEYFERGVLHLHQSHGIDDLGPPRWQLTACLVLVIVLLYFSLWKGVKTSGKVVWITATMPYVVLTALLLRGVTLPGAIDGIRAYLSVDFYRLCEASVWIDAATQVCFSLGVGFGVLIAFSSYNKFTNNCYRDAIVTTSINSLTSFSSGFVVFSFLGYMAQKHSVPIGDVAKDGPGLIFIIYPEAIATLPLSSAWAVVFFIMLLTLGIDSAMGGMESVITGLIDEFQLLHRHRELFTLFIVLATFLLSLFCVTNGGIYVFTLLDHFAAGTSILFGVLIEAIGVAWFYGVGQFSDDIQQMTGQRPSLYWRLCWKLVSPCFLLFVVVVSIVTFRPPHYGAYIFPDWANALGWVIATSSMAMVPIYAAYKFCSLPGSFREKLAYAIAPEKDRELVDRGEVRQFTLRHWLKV

SMILES | Ki [1] [nM] | Ki [2] [nM] | Ki [3] [nM] | IC50 [4] [nM] | IC50 [5] [nM] | IC50 [6] [nM] | Ki ([2]; hek293) [nM] | Ki ([3]; hek293) [nM]
COC(=O)C1C(c2ccc(C(C)=O)c(C(C)=O)c2)CC2CCC1N2C (stereo in doubt; 11) | 704 | > 10000 | > 10000 |  |  |  |  | 
COC(=O)C1C(c2ccc(O)c(O)c2)CC2CCC1N2C (stereo in doubt; 7) | 271 | 1370 | 2960 | 308 | 122 | 507 |  | 
COC(=O)C1=C(c2ccc(O)c(O)c2)CC2CCC1N2C (stereo not given) | > 10000 | > 10000 | > 10000 |  |  |  |  | 
COC(=O)C1C(c2ccc(OC)c(OC)c2)CC2CCC1N2C (stereo not given) | 46 | 1540 | 4500 | 23 | 1450 | 1570 |  | 
COC(=O)C1=C(c2ccc(C(C)=O)c(C(C)=O)c2)CC2CCC1N2C (stereo not given) | > 10000 | > 10000 | > 10000 |  |  |  |  | 
COC(=O)C1C(c2ccc(C(C)=O)c(C(C)=O)c2)CC2CCC1N2C (stereo in doubt; 10) | 168 |  |  | 330 |  |  | > 10000 | > 10000
COC(=O)C1C(c2ccc(O)c(O)c2)CC2CCC1N2C (stereo in doubt; 8) | 10000 | 970 | 3060 |  | 173 | 406 |  | 
